Experimental findings from patent US20250340557A1, “PYRIMIDINE DERIVATIVE” (ASKA PHARMACEUTICAL CO., LTD., priority 2022, published 2025) are described below.

Structures are written as SMILES.

In the assay the target is T1, human mPGES-1 (Homo sapiens, UniProt O14684).
T1 construct: made in house; host or cells: COS-1 cells (transient transfection; microsomal fraction used as enzyme)
T1 sequence (O14684 1-152): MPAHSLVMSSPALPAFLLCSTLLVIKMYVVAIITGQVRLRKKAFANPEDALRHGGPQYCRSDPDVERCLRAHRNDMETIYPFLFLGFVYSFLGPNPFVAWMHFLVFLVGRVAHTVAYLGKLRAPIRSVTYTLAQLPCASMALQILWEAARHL
The experiment in a line: Test for mPGES-1 inhibitory activity (microsomal enzyme, PGE2 EIA). The class given is biochemical. To be noted: microsomes from COS-1 cells transfected with human mPGES-1 cDNA; substrate PGH2 1 μM; 4° C., 4 minutes; PGE2 measured by EIA; read-out: h mPGES1 IC50. In a few lines:
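Enzyme source was microsomes from COS-1 cells transiently expressing human mPGES-1, in sodium phosphate pH 7.2 with 2.5 mM GSH, 1 mM EDTA and 2% DMSO final. After a 15 min preincubation with compound at 4 °C, 1 μM PGH2 (final) reacted for 4 min at 4 °C.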
With `Cc1nc(-c2c(C(F)(F)F)ccc(CNC(=O)[C@H]3CC[C@H](OCc4cccc(Cl)c4)CC3)c2F)[nH]c(=O)c1F` [Example 123, trans-4-[(3-chlorobenzyl)oxy]-N-[2-fluoro-3-(5-fluoro-4-methyl-6-oxo-1,6-dihydropyrimidin-2-yl)-4-(trifluoromethyl)benzyl]cyclohexane-1-carboxamide], the IC50 was less than 0.001 µM.

Turning to `CCc1nc(-c2c(C(F)(F)F)ccc(CNC(=O)[C@H]3CC[C@H](OCc4ccccc4Cl)CC3)c2F)[nH]c(=O)c1F` [Example 124, trans-4-[(2-chlorobenzyl)oxy]-N-[3-(4-ethyl-5-fluoro-6-oxo-1,6-dihydropyrimidin-2-yl)-2-fluoro-4-(trifluoromethyl)benzyl]cyclohexane-1-carboxamide], the IC50 was less than 0.001 µM.

Turning to `CCc1nc(-c2c(C(F)(F)F)ccc(CNC(=O)[C@H]3CC[C@H](OCc4ccc(Cl)cc4)CC3)c2F)[nH]c(=O)c1F` [Example 125, trans-4-[(4-chlorobenzyl)oxy]-N-[3-(4-ethyl-5-fluoro-6-oxo-1,6-dihydropyrimidin-2-yl)-2-fluoro-4-(trifluoromethyl)benzyl]cyclohexane-1-carboxamide], the IC50 was 0.019 µM.

For `Cc1nc(-c2c(C(F)(F)F)ccc(CNC(=O)[C@H]3CC[C@H](OCc4ccc(F)cc4F)CC3)c2F)[nH]c(=O)c1F` [Example 126, trans-4-[(2,4-difluorobenzyl)oxy]-N-[2-fluoro-3-(5-fluoro-4-methyl-6-oxo-1,6-dihydropyrimidin-2-yl)-4-(trifluoromethyl)benzyl]cyclohexane-1-carboxamide], the half-inhibitory concentration (IC50) is less than 0.001 µM.

In the case of `Cc1nc(-c2c(C(F)(F)F)ccc(CNC(=O)[C@H]3CC[C@H](OCc4ccc(F)c(F)c4)CC3)c2F)[nH]c(=O)c1F` [Example 127, trans-4-[(3,4-difluorobenzyl)oxy]-N-[2-fluoro-3-(5-fluoro-4-methyl-6-oxo-1,6-dihydropyrimidin-2-yl)-4-(trifluoromethyl)benzyl]cyclohexane-1-carboxamide], the IC50 is less than 0.001 µM.

Regarding `Cc1nc(-c2c(C(F)(F)F)ccc(CNC(=O)[C@H]3CC[C@H](OCc4ccc(Cl)cc4F)CC3)c2F)[nH]c(=O)c1F` [Example 128, trans-4-[(4-chloro-2-fluorobenzyl)oxy]-N-[2-fluoro-3-(5-fluoro-4-methyl-6-oxo-1,6-dihydropyrimidin-2-yl)-4-(trifluoromethyl)benzyl]cyclohexane-1-carboxamide], the IC50 worked out at 0.013 µM.

For `CCc1cc(=O)[nH]c(-c2c(C(F)(F)F)ccc(CNC(=O)[C@H]3CC[C@H](OCc4ccc(F)cc4F)CC3)c2F)n1` [Example 129, trans-4-[(2,4-difluorobenzyl)oxy]-N-[3-(4-ethyl-6-oxo-1,6-dihydropyrimidin-2-yl)-2-fluoro-4-(trifluoromethyl)benzyl]cyclohexane-1-carboxamide], the IC50 was 0.025 µM.

As for `Cc1nc(-c2c(C(F)(F)F)ccc(CNC(=O)[C@H]3CC[C@H](OCc4cccc(C(F)(F)F)c4)CC3)c2F)[nH]c(=O)c1F` [Example 130, trans-N-[2-fluoro-3-(5-fluoro-4-methyl-6-oxo-1,6-dihydropyrimidin-2-yl)-4-(trifluoromethyl)benzyl]-4-{[3-(trifluoromethyl)benzyl]oxy}cyclohexane-1-carboxamide], the IC50 was less than 0.001 µM.

In the case of `Cc1nc(-c2c(C(F)(F)F)ccc(CNC(=O)[C@H]3CC[C@H](OCc4cc(F)cc(Cl)c4)CC3)c2F)[nH]c(=O)c1F` [Example 131, trans-4-[(3-chloro-5-fluorobenzyl)oxy]-N-[2-fluoro-3-(5-fluoro-4-methyl-6-oxo-1,6-dihydropyrimidin-2-yl)-4-(trifluoromethyl)benzyl]cyclohexane-1-carboxamide], the IC50 was less than 0.001 µM.

Regarding `CCc1nc(-c2c(C(F)(F)F)ccc(CNC(=O)[C@H]3CC[C@H](OCc4ccc(F)cc4F)CC3)c2F)[nH]c(=O)c1F` [Example 132, trans-4-[(2,4-difluorobenzyl)oxy]-N-[3-(4-ethyl-5-fluoro-6-oxo-1,6-dihydropyrimidin-2-yl)-2-fluoro-4-(trifluoromethyl)benzyl]cyclohexane-1-carboxamide], the IC50 worked out at 0.021 µM.
